This note sets out measurements from article PMC7496931, “Activation of Sirtuin 2 Inhibitors Employing Photoswitchable Geometry and Aqueous Solubility” (Chemmedchem, 2020).

Each structure is given as a SMILES string.

Broadly, the inhibition is the share of the control response that was lost under treatment.

The assay concerns the target T1, Sirt2 (Homo sapiens, UniProt Q8IXJ6).
T1 construct: Expression and purification of Sirt1_133−747, Sirt2_56−356, and Sirt3_118−395 was carried out as described previously; made in house
T1 sequence (Q8IXJ6 56-356): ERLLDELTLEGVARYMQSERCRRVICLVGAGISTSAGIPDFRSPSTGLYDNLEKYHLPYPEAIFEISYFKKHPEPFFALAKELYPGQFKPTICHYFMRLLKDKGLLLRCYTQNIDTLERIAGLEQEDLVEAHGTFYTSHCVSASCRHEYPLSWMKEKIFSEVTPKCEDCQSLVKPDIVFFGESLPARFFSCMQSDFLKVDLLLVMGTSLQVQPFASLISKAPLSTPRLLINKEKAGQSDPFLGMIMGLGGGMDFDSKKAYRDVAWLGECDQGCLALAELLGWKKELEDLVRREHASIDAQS
The experiment in a line: FP-based binding assay (competition with fluorescently labelled SirReal probe). Set-up: key to Sirt2 inhibition FP-Assay (class): n.i. = no inhibition detected. An excerpt: This conformational change is also observed upon binding of numerous other compounds as myristoylated substrates, for instance.23 A recently developed fluorescence polarization (FP)‐based binding assay was utilized to determine whether our compounds are able to prevent binding of a fluorescently labelled SirReal to the catalytic core of Sirt2.7 Serendipitously, competition with the fluorescent probe could be confirmed for 7 f (Table S3). […] Therefore, this scaffold seemed to be a promising structure for further derivatization. […]
yielding the percentage substrate conversion. Comparison of the determined substrate conversion with a no-inhibition DMSO control yields the percentage inhibition at the respective […]
For determination of IC50, inhibitory activity of the respective compound was determined at 8 to 10 distinct concentrations. The measured values were analysed by a non-linear fit to the dose-response curve using a four parameter logistic model (Figure S6):
Figure S6: Non-linear regression of the dose-response curves of compounds 15c and 15f at the thermal equilibrium (∆, black) and after 5 minutes of 365 nm irradiation (red). […]
before 5 µL of the solution of 21 (40 nM final assay concentration) were added. After further 30 min of incubation at 37 °C the fluorescence intensities were recorded with an EnVisionTM plate reader (PerkinElmer) with the following settings: optical module – BODIPY TMR FP, excitation filter – FP 531 nm, emission filter 1 – FP p-pol 595 nm, emission filter 2 – FP s-pol 595 nm. Fluorescence polarization (P) values were determined as […] (mP), […]
where Is/IP are the fluorescence intensities measured in the s- and the p-plane respectively, both blank corrected. […] Inhibition was calculated from fluorescence polarization in relation to the maximal polarization and minimal […]
Table S3: Compounds 7c, 7f and 9a examined in the FP-based binding assay and in the ZMAL activity assay. Inhibition of Sirt2 in the FP-based binding assay indicates displacement of the fluorescence-labelled SirReal probe and implies a similar binding mode. […]

As to `NC(=O)c1cncc(/N=N/c2c(O)ccc3ccccc23)c1` [7 c], the “Sirt2 inhibition FP-Assay (class)” value is on record as “n.i”.

As for `Cc1cc(/N=N/c2cncc(C(N)=O)c2)cc(C)c1N` [7 f], the inhibition at 10 µM (@ 10 µM, read-out: Sirt2 inhibition FP-Assay, % inhibition of binding of the fluorescent probe) amounted to 46%.

As for `CC(=O)Nc1c(C)cc(/N=N/c2cncc(C(N)=O)c2)cc1C` [9 a], the inhibition at 100 µM (@ 100 µM, read-out: Sirt2 inhibition FP-Assay, % inhibition of binding of the fluorescent probe) is 69%.
